Source: ChEMBL document CHEMBL1909046, “DrugMatrix in vitro pharmacology data”

What was measured:
[1] = biological target: T1, Polyunsaturated fatty acid lipoxygenase ALOX15 (Oryctolagus cuniculus, UniProt P12530); test: biochemical; format: tissue-based, Reticulocytes; settings: reticulocytes;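 further: inhibition of 15-lipoxygenase enzyme activity measured with linoleic acid as the substrate; in other assays of this panel Not Active means under 50% inhibition at 10 µM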
T1 sequence (P12530 whole entry): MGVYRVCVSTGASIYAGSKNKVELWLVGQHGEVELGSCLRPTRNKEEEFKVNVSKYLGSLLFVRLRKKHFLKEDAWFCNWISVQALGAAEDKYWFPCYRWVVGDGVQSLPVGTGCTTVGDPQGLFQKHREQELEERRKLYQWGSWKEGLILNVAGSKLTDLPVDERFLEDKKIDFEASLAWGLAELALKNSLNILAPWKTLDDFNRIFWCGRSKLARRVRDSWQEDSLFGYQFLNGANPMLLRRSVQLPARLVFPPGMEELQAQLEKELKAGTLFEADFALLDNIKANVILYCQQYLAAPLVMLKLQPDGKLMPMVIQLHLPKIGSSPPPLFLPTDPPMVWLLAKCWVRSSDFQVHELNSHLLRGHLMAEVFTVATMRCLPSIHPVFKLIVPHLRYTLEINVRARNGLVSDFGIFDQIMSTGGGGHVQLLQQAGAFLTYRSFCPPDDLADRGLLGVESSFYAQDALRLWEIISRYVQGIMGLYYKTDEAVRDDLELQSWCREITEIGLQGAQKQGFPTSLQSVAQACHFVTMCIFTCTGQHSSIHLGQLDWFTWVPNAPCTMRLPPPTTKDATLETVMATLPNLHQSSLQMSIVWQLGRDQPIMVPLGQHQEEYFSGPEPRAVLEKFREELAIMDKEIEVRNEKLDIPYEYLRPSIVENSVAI

Adenosine receptor A2a = Adenosine receptor A2a (Homo sapiens, UniProt P29274); test: DRUGMATRIX: Adenosine A2A radioligand binding (ligand: […]); format: cell membranes, HEK293, Membrane; settings: hek293; Not Active = under 50% inhibition at 10 µM
[2] = DRUGMATRIX: Sigma2 radioligand binding (ligand: [3H] Ifenprodil); format: cell membranes, Rattus norvegicus, Wistar, Brain, Membrane; settings: Not Active = under 50% inhibition at 10 µM
[3] = DRUGMATRIX: Glutamate, AMPA radioligand binding (ligand: [3H] AMPA); format: cell membranes, Rattus norvegicus, Wistar, Cerebral cortex, Membrane; settings: Not Active = under 50% inhibition at 10 µM
Cytochrome P450 3A4 = Cytochrome P450 3A4 (Homo sapiens, UniProt P08684); settings: bti-tn-5b1-4; further: in other assays of this panel Not Active means under 50% inhibition at 10 µM
Cannabinoid receptor 1 = Cannabinoid receptor 1 (Homo sapiens, UniProt P21554); format: cell membranes, Chem-1, Membrane; settings: chem-1; further: in other assays of this panel Not Active means under 50% inhibition at 10 µM
Cannabinoid receptor 1, sequence (P21554 whole entry): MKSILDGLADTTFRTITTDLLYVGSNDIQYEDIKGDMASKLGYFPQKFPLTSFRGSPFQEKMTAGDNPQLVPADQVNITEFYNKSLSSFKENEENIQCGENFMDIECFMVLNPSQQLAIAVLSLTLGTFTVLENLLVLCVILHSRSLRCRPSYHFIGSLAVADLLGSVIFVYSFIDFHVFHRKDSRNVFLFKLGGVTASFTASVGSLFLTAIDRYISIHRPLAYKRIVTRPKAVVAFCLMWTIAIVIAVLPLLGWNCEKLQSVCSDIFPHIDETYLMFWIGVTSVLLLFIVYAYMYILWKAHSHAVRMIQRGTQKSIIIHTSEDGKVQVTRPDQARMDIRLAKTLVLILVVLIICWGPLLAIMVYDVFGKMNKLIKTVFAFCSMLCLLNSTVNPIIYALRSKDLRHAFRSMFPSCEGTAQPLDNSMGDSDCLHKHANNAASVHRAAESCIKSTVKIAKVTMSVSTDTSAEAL

Adenosine receptor A2a, sequence (P29274 whole entry): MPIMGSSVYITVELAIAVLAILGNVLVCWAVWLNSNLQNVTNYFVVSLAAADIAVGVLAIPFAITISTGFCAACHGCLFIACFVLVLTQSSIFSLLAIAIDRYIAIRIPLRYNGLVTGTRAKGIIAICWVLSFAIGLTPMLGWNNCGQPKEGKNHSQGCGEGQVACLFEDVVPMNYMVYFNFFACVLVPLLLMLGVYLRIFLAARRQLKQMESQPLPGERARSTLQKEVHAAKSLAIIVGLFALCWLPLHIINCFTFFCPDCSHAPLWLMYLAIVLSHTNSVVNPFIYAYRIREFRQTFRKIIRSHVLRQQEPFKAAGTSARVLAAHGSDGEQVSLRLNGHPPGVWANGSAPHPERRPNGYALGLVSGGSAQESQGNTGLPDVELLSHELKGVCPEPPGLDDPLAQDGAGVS
Cytochrome P450 3A4, sequence (P08684 whole entry): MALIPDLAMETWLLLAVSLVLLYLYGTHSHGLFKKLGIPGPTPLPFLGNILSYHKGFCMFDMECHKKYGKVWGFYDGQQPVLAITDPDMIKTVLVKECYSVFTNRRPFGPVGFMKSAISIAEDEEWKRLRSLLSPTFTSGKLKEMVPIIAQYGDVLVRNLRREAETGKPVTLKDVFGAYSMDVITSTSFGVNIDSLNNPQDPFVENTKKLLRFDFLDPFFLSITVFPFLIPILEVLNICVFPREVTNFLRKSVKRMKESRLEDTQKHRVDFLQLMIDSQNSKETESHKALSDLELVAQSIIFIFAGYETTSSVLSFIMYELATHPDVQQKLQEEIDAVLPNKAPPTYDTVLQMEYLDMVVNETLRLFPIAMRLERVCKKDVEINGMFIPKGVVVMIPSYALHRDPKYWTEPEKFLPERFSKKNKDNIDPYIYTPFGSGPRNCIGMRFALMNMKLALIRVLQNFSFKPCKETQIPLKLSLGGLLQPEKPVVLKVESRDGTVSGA

CCOC(=O)[C@H](CCc1ccccc1)N[C@H]1CCc2ccccc2N(CC(=O)O)C1=O [BENAZEPRIL]
Not Active: IC50 [1] | IC50 (Adenosine receptor A2a) | IC50 [2] | Ki [2] | IC50 [3] | Ki [3] | IC50 (Cytochrome P450 3A4) | Ki (Cytochrome P450 3A4) | IC50 (Cannabinoid receptor 1)

Nc1c(CC(=O)O)cccc1C(=O)c1ccc(Br)cc1 [BROMFENAC]
Not Active: IC50 [1] | IC50 (Adenosine receptor A2a) | IC50 [2] | Ki [2] | IC50 [3] | Ki [3] | IC50 (Cytochrome P450 3A4) | Ki (Cytochrome P450 3A4) | IC50 (Cannabinoid receptor 1)

CCCCN1CCCCC1C(=O)Nc1c(C)cccc1C.Cl (configuration not stated) [BUPIVACAINE HYDROCHLORIDE]
Not Active: IC50 [1] | IC50 (Adenosine receptor A2a) | IC50 [2] | Ki [2] | IC50 [3] | Ki [3] | IC50 (Cytochrome P450 3A4) | Ki (Cytochrome P450 3A4) | IC50 (Cannabinoid receptor 1)

C[C@@]12C(=O)OC(=O)[C@]1(C)[C@H]1CC[C@@H]2O1 [CANTHARIDIN]
Not Active: IC50 [1] | IC50 (Adenosine receptor A2a) | IC50 [2] | Ki [2] | IC50 [3] | Ki [3] | IC50 (Cytochrome P450 3A4) | Ki (Cytochrome P450 3A4) | IC50 (Cannabinoid receptor 1)

ClC(Cl)Cl [CHLOROFORM]
Not Active: IC50 [1] | IC50 (Adenosine receptor A2a) | IC50 [2] | Ki [2] | IC50 [3] | Ki [3] | IC50 (Cytochrome P450 3A4) | Ki (Cytochrome P450 3A4) | IC50 (Cannabinoid receptor 1)

C=C1CC[C@H](O)C/C1=C/C=C1\CCC[C@]2(C)[C@@H]([C@H](C)CCCC(C)C)CC[C@@H]12 [CHOLECALCIFEROL]
Not Active: IC50 [1] | IC50 (Adenosine receptor A2a) | IC50 [2] | Ki [2] | IC50 [3] | Ki [3] | IC50 (Cytochrome P450 3A4) | Ki (Cytochrome P450 3A4) | IC50 (Cannabinoid receptor 1)

C[N+](C)(C)CCO.[Cl-] [CHOLINE CHLORIDE]
Not Active: IC50 [1] | IC50 (Adenosine receptor A2a) | IC50 [2] | Ki [2] | IC50 [3] | Ki [3] | IC50 (Cytochrome P450 3A4) | Ki (Cytochrome P450 3A4) | IC50 (Cannabinoid receptor 1)

CC(=O)OCC(=O)[C@@]1(O)CC[C@H]2[C@@H]3CCC4=CC(=O)CC[C@]4(C)[C@H]3C(=O)C[C@@]21C [CORTISONE ACETATE]
Not Active: IC50 [1] | IC50 (Adenosine receptor A2a) | IC50 [2] | Ki [2] | IC50 [3] | Ki [3] | IC50 (Cytochrome P450 3A4) | Ki (Cytochrome P450 3A4) | IC50 (Cannabinoid receptor 1)

O=c1ccc2ccccc2o1 [COUMARIN]
Not Active: IC50 [1] | IC50 (Adenosine receptor A2a) | IC50 [2] | Ki [2] | IC50 [3] | Ki [3] | IC50 (Cytochrome P450 3A4) | Ki (Cytochrome P450 3A4) | IC50 (Cannabinoid receptor 1)

CN(C)/N=N/c1[nH]cnc1C(N)=O [DACARBAZINE]
Not Active: IC50 [1] | IC50 (Adenosine receptor A2a) | IC50 [2] | Ki [2] | IC50 [3] | Ki [3] | IC50 (Cytochrome P450 3A4) | Ki (Cytochrome P450 3A4) | IC50 (Cannabinoid receptor 1)

COc1ccc2c(c1)[C@]13CCCC[C@@H]1[C@H](C2)N(C)CC3 [DEXTROMETHORPHAN]
Not Active: IC50 [1] | IC50 (Adenosine receptor A2a) | IC50 [2] | Ki [2] | IC50 [3] | Ki [3] | IC50 (Cytochrome P450 3A4) | Ki (Cytochrome P450 3A4) | IC50 (Cannabinoid receptor 1)

CC(=O)Nc1c(I)c(NC(C)=O)c(I)c(C(=O)O)c1I [DIATRIZOIC ACID]
Not Active: IC50 [1] | IC50 (Adenosine receptor A2a) | IC50 [2] | Ki [2] | IC50 [3] | Ki [3] | IC50 (Cytochrome P450 3A4) | Ki (Cytochrome P450 3A4) | IC50 (Cannabinoid receptor 1)

COP(=O)(OC)OC=C(Cl)Cl [DICHLORVOS]
Not Active: IC50 [1] | IC50 (Adenosine receptor A2a) | IC50 [2] | Ki [2] | IC50 [3] | Ki [3] | IC50 (Cytochrome P450 3A4) | Ki (Cytochrome P450 3A4) | IC50 (Cannabinoid receptor 1)
